# Laboratory results reported in patent US11229636B2, “Substituted tetrahydroquinolinone compounds as ROR gamma modulators” (Aurigene Discovery Technologies Limited, priority 2015, dated 2022).
# Biological target: ROR gamma ligand binding domain (Homo sapiens (Human), UniProt P51449)
# Assay: ROR gamma luciferase reporter assay (GAL4-ROR gamma LBD, HEK293 cells)
# Assay type: cell-based
# Conditions: 48 hours treatment, read-out: RORγ luciferase Reporter assay: IC50 (nM) (in range)
# Procedure: The Ligand Binding Domain (LBD) of ROR gamma was cloned into pFN26A (BIND) hRluc-neo Flexi vector (Promega) which expresses a fusion protein comprised of a DNA binding domain of the yeast GAL4 gene, a linker segment and ROR gamma ligand binding domain. For the reporter assay 0.02×10^6 HEK293 cells were seeded per well in a 96 well plate in complete media and incubated overnight in an incubator with 5% CO2 at 37° C. before transfection. Cells were then co-transfected with pFN26A hRluc-neo Flexi vector containing the LBD of ROR gamma and pGL4.35 [luc2P/9XGAL4 UAS/Hygro] Vector (Promega) in low serum media. Post transfection and recovery, cells were treated with the test compounds for 48 hours. The assay was terminated using the Bright-Glo Luciferase assay system from Promega and the Luminescence was measured using a luminescence reader. The luminescence values were used to calculate the potency of the compounds.
# Sequence of ROR gamma ligand binding domain (P51449 269-508): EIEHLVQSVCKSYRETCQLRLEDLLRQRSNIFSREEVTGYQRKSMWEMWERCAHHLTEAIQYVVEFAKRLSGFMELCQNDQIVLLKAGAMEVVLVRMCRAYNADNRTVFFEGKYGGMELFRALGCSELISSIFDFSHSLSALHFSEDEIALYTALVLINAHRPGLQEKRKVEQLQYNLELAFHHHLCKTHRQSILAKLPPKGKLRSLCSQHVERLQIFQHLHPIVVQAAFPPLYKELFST
row,IC50 [nM],SMILES
1,100 to 500,"CCS(=O)(=O)c1ccc(CC(=O)Nc2ccc3c(n2)CCC(C)(c2cc(C)nc(C)n2)C3=O)nc1 (single isomer, unassigned) [compound 124, N-(6-(2,6-dimethylpyrimidin-4-yl)-6-methyl-5-oxo-5,6,7,8-tetrahydroquinolin-2-yl)-2-(5-(ethylsulfonyl)pyridin-2-yl)acetamide]"
2,< 100,"CCS(=O)(=O)c1ccc(CNC(=O)c2ccc3c(n2)CCC(C)(c2cc(C)nc(C)n2)C3=O)cc1 (single isomer, unassigned) [compound 125, 6-(2,6-dimethylpyrimidin-4-yl)-N-(4-(ethylsulfonyl)benzyl)-6-methyl-5-oxo-5,6,7,8-tetrahydroquinoline-2-carboxamide]"
3,> 500,"CCS(=O)(=O)c1ccc(CNC(=O)c2ccc3c(n2)CCC(C)(c2cc(C)nc(C)n2)C3=O)cc1 (single isomer, unassigned) [compound 126, 6-(2,6-dimethylpyrimidin-4-yl)-N-(4-(ethylsulfonyl)benzyl)-6-methyl-5-oxo-5,6,7,8-tetrahydroquinoline-2-carboxamide]"
4,> 500,"CCS(=O)(=O)c1ccc(CC(=O)Nc2ccc3c(n2)C(C)CC(C)(c2nccn4ccnc24)C3=O)cc1 (stereo not drawn) [Compound 48, 2-(4-(ethylsulfonyl)phenyl)-N-(6-(imidazo[1,2-a]pyrazin-8-yl)-6,8-dimethyl-5-oxo-5,6,7,8-tetrahydroquinolin-2-yl)acetamide]"
5,< 100,"CCS(=O)(=O)c1ccc(CC(=O)Nc2ccc3c(n2)CCC(C)(c2nc(C)cn4cc(C)nc24)C3=O)cc1 (stereo not drawn) [Compound 51, N-(6-(2,6-dimethylimidazo[1,2-a]pyrazin-8-yl)-6-methyl-5-oxo-5,6,7,8-tetrahydroquinolin-2-yl)-2-(4-(ethylsulfonyl)phenyl)acetamide]"
6,< 100,"CCS(=O)(=O)c1ccc(CC(=O)Nc2cc(C)c3c(n2)CCC(C)(c2nccn4cc(C)nc24)C3=O)cc1 (stereo not drawn) [Compound 52, N-(4,6-dimethyl-6-(2-methylimidazo[1,2-a]pyrazin-8-yl)-5-oxo-5,6,7,8-tetrahydroquinolin-2-yl)-2-(4-(ethylsulfonyl)phenyl)acetamide]"
7,> 500,"CCS(=O)(=O)c1ccc(CC(=O)Nc2cc(C)c3c(n2)CCC(C)(c2ccc(C(F)(F)F)nn2)C3=O)cc1 (stereo not drawn) [Compound 53, N-(4,6-dimethyl-5-oxo-6-(6-(trifluoromethyl)pyridazin-3-yl)-5,6,7,8-tetrahydroquinolin-2-yl)-2-(4-(ethylsulfonyl)phenyl)acetamide]"
8,> 500,"CCS(=O)(=O)c1ccc(CC(=O)Nc2ccc3c(n2)CCC(C)(c2ccc(OC(C)C)nn2)C3=O)cc1 (stereo not drawn) [Compound 57, 2-(4-(ethylsulfonyl)phenyl)-N-(6-(6-isopropoxypyridazin-3-yl)-6-methyl-5-oxo-5,6,7,8-tetrahydroquinolin-2-yl)acetamide]"
9,100 to 500,"CCS(=O)(=O)c1ccc(CC(=O)Nc2ccc3c(n2)CCC(C)(c2nccn4cc(C)nc24)C3=O)c(F)c1 (stereo not drawn) [Compound 58, 2-(4-(ethylsulfonyl)-2-fluorophenyl)-N-(6-methyl-6-(2-methylimidazo[1,2-a]pyrazin-8-yl)-5-oxo-5,6,7,8-tetrahydroquinolin-2-yl)acetamide]"
10,> 500,"Cc1cn2ccnc(C3(C)CCc4nc(NC(=O)Cc5ccc(S(C)(=O)=O)cc5)ccc4C3=O)c2n1 (stereo not drawn) [Compound 59, N-(6-methyl-6-(2-methylimidazo[1,2-a]pyrazin-8-yl)-5-oxo-5,6,7,8-tetrahydroquinolin-2-yl)-2-(4-(methylsulfonyl)phenyl)acetamide]"
11,100 to 500,"CCS(=O)(=O)c1ccc(CC(=O)Nc2ccc3c(n2)CCC(C)(c2cnc(C(C)C)cn2)C3=O)cc1 (stereo not drawn) [Compound 60, 2-(4-(ethylsulfonyl)phenyl)-N-(6-(5-isopropylpyrazin-2-yl)-6-methyl-5-oxo-5,6,7,8-tetrahydroquinolin-2-yl)acetamide]"
12,< 100,"CCS(=O)(=O)c1ccc(CC(=O)Nc2ccc3c(n2)CCC(C)(c2cc(C)nc(OC)n2)C3=O)cc1 (stereo not drawn) [Compound 64, 2-(4-(ethylsulfonyl)phenyl)-N-(6-(2-methoxy-6-methylpyrimidin-4-yl)-6-methyl-5-oxo-5,6,7,8-tetrahydroquinolin-2-yl)acetamide]"
13,< 100,"CCS(=O)(=O)c1ccc(CC(=O)Nc2ccc3c(n2)CCC(C)(c2cc(OC)nc(C)n2)C3=O)cc1 (stereo not drawn) [Compound 65, 2-(4-(ethylsulfonyl)phenyl)-N-(6-(6-methoxy-2-methylpyrimidin-4-yl)-6-methyl-5-oxo-5,6,7,8-tetrahydroquinolin-2-yl)acetamide]"
14,< 100,"CCS(=O)(=O)c1ccc(CC(=O)Nc2ccc3c(n2)CCC(C)(c2nccn4c(F)c(C)nc24)C3=O)cc1 (stereo not drawn) [Compound 66, 2-(4-(ethylsulfonyl)phenyl)-N-(6-(3-fluoro-2-methylimidazo[1,2-a]pyrazin-8-yl)-6-methyl-5-oxo-5,6,7,8-tetrahydroquinolin-2-yl)acetamide]"
15,> 500,"CCS(=O)(=O)c1ccc(CC(=O)Nc2ccc3c(n2)CCC(C)(c2cc(C(F)(F)F)nc(C)n2)C3=O)cc1 (stereo not drawn) [Compound 67, 2-(4-(ethylsulfonyl)phenyl)-N-(6-methyl-6-(2-methyl-6-(trifluoromethyl)-pyrimidin-4-yl)-5-oxo-5,6,7,8-tetrahydroquinolin-2-yl)acetamide]"
16,100 to 500,"CCS(=O)(=O)c1ccc(CC(=O)Nc2ccc3c(n2)CCC(C)(c2ncc(C)n4ccnc24)C3=O)cc1 (stereo not drawn) [Compound 68, 2-(4-(ethylsulfonyl)phenyl)-N-(6-methyl-6-(5-methylimidazo[1,2-a]pyrazin-8-yl)-5-oxo-5,6,7,8-tetrahydroquinolin-2-yl)acetamide]"
17,> 500,"CCS(=O)(=O)c1ccc(CC(=O)Nc2cc(C)c3c(n2)CCC(C)(c2ccc(=O)n(C)n2)C3=O)cc1 (stereo not drawn) [Compound 70, N-(4,6-dimethyl-6-(1-methyl-6-oxo-1,6-dihydropyridazin-3-yl)-5-oxo-5,6,7,8-tetrahydroquinolin-2-yl)-2-(4-(ethylsulfonyl)phenyl)acetamide]"
18,100 to 500,"CCS(=O)(=O)c1ccc(CC(=O)Nc2ccc3c(n2)CCC(C)(c2nccn4c(C5CC5)cnc24)C3=O)cc1 (stereo not drawn) [Compound 71, N-(6-(3-cyclopropylimidazo[1,2-a]pyrazin-8-yl)-6-methyl-5-oxo-5,6,7,8-tetrahydroquinolin-2-yl)-2-(4-(ethylsulfonyl)phenyl)acetamide]"
19,< 100,"CCS(=O)(=O)c1ccc(CC(=O)Nc2ccc3c(n2)CCC(C)(c2nccn4cc(C(F)(F)F)nc24)C3=O)cc1 (stereo not drawn) [Compound 72, 2-(4-(ethylsulfonyl)phenyl)-N-(6-methyl-5-oxo-6-(2-(trifluoromethyl)-imidazo[1,2-a]pyrazin-8-yl)-5,6,7,8-tetrahydroquinolin-2-yl)acetamide]"
20,> 500,"CCS(=O)(=O)c1ccc(CC(=O)Nc2cc(C)c3c(n2)CCC(C)(c2cc(OC)cnn2)C3=O)cc1 (stereo not drawn) [Compound 73, 2-(4-(ethylsulfonyl)phenyl)-N-(6-(5-methoxypyridazin-3-yl)-4,6-dimethyl-5-oxo-5,6,7,8-tetrahydroquinolin-2-yl)acetamide]"
21,< 100,"CCS(=O)(=O)c1ccc(CC(=O)Nc2ccc3c(n2)CCC(C)(c2nccn4c(C(F)(F)F)cnc24)C3=O)cc1 (stereo not drawn) [Compound 74, 2-(4-(ethylsulfonyl)phenyl)-N-(6-methyl-5-oxo-6-(3-(trifluoromethyl)-imidazo[1,2-a]pyrazin-8-yl)-5,6,7,8-tetrahydroquinolin-2-yl)acetamide]"
22,100 to 500,"CCS(=O)(=O)c1ccc(CC(=O)Nc2cc(C)c3c(n2)CCC(C)(c2ccc4nc(C)cn4n2)C3=O)cc1 (stereo not drawn) [Compound 75, N-(4,6-dimethyl-6-(2-methylimidazo[1,2-b]pyridazin-6-yl)-5-oxo-5,6,7,8-tetrahydroquinolin-2-yl)-2-(4-(ethylsulfonyl)phenyl)acetamide]"
23,100 to 500,"CCS(=O)(=O)c1ccc(CC(=O)Nc2cc(C)c3c(n2)CCC(C)(c2cc(C4CC4)c(OC)nn2)C3=O)cc1 (stereo not drawn) [Compound 76, N-(6-(5-cyclopropyl-6-methoxypyridazin-3-yl)-4,6-dimethyl-5-oxo-5,6,7,8-tetrahydroquinolin-2-yl)-2-(4-(ethylsulfonyl)phenyl)acetamide]"
24,100 to 500,"CCS(=O)(=O)c1ccc(CC(=O)Nc2cc(C)c3c(n2)CCC(C)(c2ccc4nccn4n2)C3=O)cc1 (stereo not drawn) [Compound 77, 2-(4-(ethylsulfonyl)phenyl)-N-(6-(imidazo[1,2-b]pyridazin-6-yl)-4,6-dimethyl-5-oxo-5,6,7,8-tetrahydroquinolin-2-yl)acetamide]"
25,100 to 500,"CCS(=O)(=O)c1ccc(CC(=O)Nc2ccc3c(n2)CCC(C)(c2cc(C)nc(C(F)(F)F)n2)C3=O)cc1 (stereo not drawn) [Compound 78, 2-(4-(ethylsulfonyl)phenyl)-N-(6-methyl-6-(6-methyl-2-(trifluoromethyl)-pyrimidin-4-yl)-5-oxo-5,6,7,8-tetrahydroquinolin-2-yl)acetamide]"
26,< 100,"CCS(=O)(=O)c1ccc(CC(=O)Nc2ccc3c(n2)CC(C)C(C)(c2cc(C)nc(C)n2)C3=O)cc1 (stereo not drawn) [Compound 81, N-(6-(2,6-dimethylpyrimidin-4-yl)-6,7-dimethyl-5-oxo-5,6,7,8-tetrahydroquinolin-2-yl)-2-(4-(ethylsulfonyl)phenyl)acetamide]"
27,> 500,"CCS(=O)(=O)c1ccc(CC(=O)Nc2ccc3c(n2)CC(C)C(c2cc(C)nc(C)n2)C3=O)cc1 (stereo not drawn) [Compound 82, N-(6-(2,6-dimethylpyrimidin-4-yl)-7-methyl-5-oxo-5,6,7,8-tetrahydroquinolin-2-yl)-2-(4-(ethylsulfonyl)phenyl)acetamide]"
